Data on 7 compounds can be found in ChEMBL document CHEMBL1201862, “PubChem BioAssay data set” (2004).

Test systems include CCRF-CEM; U-251; Malme-3M; OVCAR-8; M14; COLO 205; SK-MEL-2; OVCAR-4; SF-295; KM12; SK-OV-3; UO-31; UACC-257; K562; MDA-MB-435; PC-3; MOLT-4; SF-268; OVCAR-5; NCI-H23.
Holding throughout (assay): inhibition of tumour cell growth, NCI panel, 48 h

SMILES strings stand for the structures.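 Step 1: Grow cells in 96-well plates. Step 2: Expose to compound for 48 hours at 5 concentrations. Step 3: Interpolate endpoints linearly; if unreached, use highest concentration. At the GI50, growth is halved.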 Calls of active or inactive are those of the source. Cut-off read from the data, not from the text of the source: active = GI50 up to about 1.1 µM and inactive = higher. A value given as a limit tells only on which side of the number the result lay.

Consider `COc1ccc(C2C(C)C(=O)C(C)C(c3ccc(OC)cc3)N2N=O)cc1` (stereo not given), for which the GI50 in the test with CCRF-CEM was > 700 µM (inactive); in the test on U-251, 117 µM (inactive); in the test on Malme-3M it was > 537 µM (inactive); in the test on OVCAR-8, 340 µM (inactive); in the test on M14 it was 537 µM (inactive); with COLO 205, > 550 µM (inactive). Besides, the GI50 in the test with SK-MEL-2 was 215 µM (inactive); with OVCAR-4, > 479 µM (inactive); with SF-295, 126 µM (inactive); in the test on KM12, > 678 µM (inactive); in the test with SK-OV-3, 257 µM (inactive); in the test with UO-31, 495 µM (inactive). Besides, the GI50 in the test on UACC-257 is > 703 µM (inactive); in the test on K562 it was > 1000 µM (inactive); in the test on MDA-MB-435 it was 166 µM (inactive); in the test on PC-3, 253 µM (inactive); with MOLT-4, > 789 µM (inactive); in the test with SF-268, 171 µM (inactive). Moreover, the figures for the GI50 with OVCAR-5 and in the test with NCI-H23 were 393 µM (inactive) and 261 µM (inactive), respectively.
As for `C=C(C)C12CC3CC/C(=N/O)C(C1)C3(N1CCOCC1)C/C2=N/O` (stereo not given), the GI50 in the test with CCRF-CEM, in the test with U-251, with Malme-3M, with OVCAR-8, in the test on M14 and in the test on COLO 205 was > 100 µM (inactive) throughout. Moreover, the GI50 with SK-MEL-2, with OVCAR-4, with SF-295, in the test with KM12, with SK-OV-3 and in the test with UO-31 was > 100 µM (inactive) each time. For the same compound, the GI50 with UACC-257, with K562, in the test with MDA-MB-435, in the test with PC-3, with MOLT-4 and in the test with SF-268 was > 100 µM (inactive) each time. Also, the GI50 with OVCAR-5 and in the test on NCI-H23 was > 100 µM (inactive) throughout.
Consider `Nc1c(O)c(C(=O)O)cc2ccccc12`, for which the GI50 in the test with CCRF-CEM was 37.8 µM (inactive); with U-251, 30.3 µM (inactive); in the test on Malme-3M, 15.3 µM (inactive); in the test on OVCAR-8, 44.3 µM (inactive); in the test on M14, 17.7 µM (inactive); with COLO 205 it was 26.1 µM (inactive). Moreover, the GI50 is 17.7 µM (inactive) in the test on SK-MEL-2; 22.9 µM (inactive) in the test with OVCAR-4; 51.8 µM (inactive) in the test on SF-295; 40.2 µM (inactive) in the test on KM12; > 100 µM (inactive) in the test on SK-OV-3; 47.3 µM (inactive) with UO-31. Also, the GI50 in the test with UACC-257 is 17.3 µM (inactive); in the test with K562, 31.8 µM (inactive); with MDA-MB-435 it was 18.8 µM (inactive); in the test with PC-3, 39.1 µM (inactive); with MOLT-4, 29.8 µM (inactive); with SF-268, 42 µM (inactive). For the same compound, the GI50 in the test with OVCAR-5 is 18.9 µM (inactive); with NCI-H23, 23.3 µM (inactive).
As for `O=C1c2ccccc2C(=O)N1C(=S)c1ccccc1`, the GI50 in the test with CCRF-CEM, in the test on U-251, in the test with Malme-3M, in the test on OVCAR-8, in the test with M14 and with COLO 205 was > 100 µM (inactive) in each case. Moreover, the GI50 in the test with SK-MEL-2, in the test on OVCAR-4, with SF-295, with KM12, in the test with SK-OV-3 and in the test with UO-31 was > 100 µM (inactive) in each case. The GI50 in the test on UACC-257, with K562, in the test on MDA-MB-435, with PC-3, with MOLT-4 and in the test on SF-268 was > 100 µM (inactive) each time. The GI50 with OVCAR-5 and with NCI-H23 was > 100 µM (inactive) each time.
Regarding `C=CCN1CCC(c2cc(C(=O)OCC)[nH]c2-c2cc(C)no2)C1=O` (stereo not given), the GI50 in the test with CCRF-CEM, with U-251, in the test with Malme-3M, in the test on OVCAR-8, in the test with M14 and with COLO 205 was > 100 µM (inactive) throughout. Also, the GI50 in the test with SK-MEL-2, in the test on OVCAR-4, in the test on SF-295, with KM12, in the test on SK-OV-3 and with UO-31 was > 100 µM (inactive) throughout. The GI50 with UACC-257 is > 100 µM (inactive); in the test on K562 it was > 100 µM (inactive); in the test with MDA-MB-435, > 100 µM (inactive); in the test on PC-3 it was > 100 µM (inactive); in the test with MOLT-4, 79.6 µM (inactive); in the test with SF-268, > 100 µM (inactive). For the same compound, the GI50 in the test with OVCAR-5 and in the test on NCI-H23 was > 100 µM (inactive) in each case.
Turning to `Cc1c2cc[n+](C)c(C)c2cc2c1[nH]c1ccccc12`, the GI50 in the test on CCRF-CEM is 6.9 µM (inactive); in the test with U-251 it was 0.69 µM (active); in the test on Malme-3M, 2.72 µM (inactive); in the test with OVCAR-8, 2.82 µM (inactive); in the test with M14 it was 25.2 µM (inactive); in the test with COLO 205, 1.57 µM (inactive). Also, the GI50 was 6.73 µM (inactive) in the test with SK-MEL-2; 5.43 µM (inactive) with OVCAR-4; 2.27 µM (inactive) with SF-295; 2.65 µM (inactive) in the test with KM12; 12.7 µM (inactive) in the test with SK-OV-3; 67.6 µM (inactive) in the test with UO-31. Moreover, the GI50 in the test on UACC-257 is 10.8 µM (inactive); in the test with K562, 4.94 µM (inactive); in the test with MDA-MB-435, 16.2 µM (inactive); in the test on PC-3 it was 22.2 µM (inactive); with MOLT-4, 4.05 µM (inactive); with SF-268, 0.984 µM (active). Also, the GI50 was 19.2 µM (inactive) in the test on OVCAR-5 and 2.05 µM (inactive) with NCI-H23.
Turning to `CC1(C)CC2=NC(SSC3=C(C#N)C(c4ccc(Br)cc4)C4=C(O)CC(C)(C)CC4=N3)=C(C#N)C(c3ccc(Br)cc3)C2=C(O)C1` (stereo not given), the GI50 with CCRF-CEM, with U-251, in the test with Malme-3M, with OVCAR-8, with M14 and in the test on COLO 205 was > 100 µM (inactive) throughout. For the same compound, the GI50 in the test on SK-MEL-2, in the test with OVCAR-4, with SF-295, in the test with KM12, with SK-OV-3 and in the test with UO-31 was > 100 µM (inactive) throughout. For the same compound, the GI50 is > 100 µM (inactive) with UACC-257; 75 µM (inactive) in the test with K562; > 100 µM (inactive) in the test with MDA-MB-435; > 100 µM (inactive) in the test on PC-3; 59 µM (inactive) in the test on MOLT-4; > 100 µM (inactive) with SF-268. The GI50 in the test on OVCAR-5 and in the test with NCI-H23 was > 100 µM (inactive) each time.
